Reference: US9771376B2 (GENENTECH, INC., priority 2000, dated 2017)

What was measured:
human NaV1.7 = human NaV1.7 (Homo sapiens (Human), UniProt Q15858); experiment: Patch voltage clamp electrophysiology assay, NaV1.7; assay type: cell-based; details: inactivated state; HEK-293 cells stably expressing NaV1.7 with β1 subunit; held at −60 mV; read-out: Human 1.7 EP (IC50 μM)
human NaV1.5 = human NaV1.5 (Homo sapiens (Human), UniProt Q14524); experiment: Patch voltage clamp electrophysiology assay, NaV1.5; details: read-out: Human 1.5 EP IC50 μM; inactivated state; HEK-293 cells stably expressing NaV1.5 with β1 subunit; held at −60 mV

Sequence of human NaV1.7 (Q15858 other isoform, or with tags, fused parts or gaps): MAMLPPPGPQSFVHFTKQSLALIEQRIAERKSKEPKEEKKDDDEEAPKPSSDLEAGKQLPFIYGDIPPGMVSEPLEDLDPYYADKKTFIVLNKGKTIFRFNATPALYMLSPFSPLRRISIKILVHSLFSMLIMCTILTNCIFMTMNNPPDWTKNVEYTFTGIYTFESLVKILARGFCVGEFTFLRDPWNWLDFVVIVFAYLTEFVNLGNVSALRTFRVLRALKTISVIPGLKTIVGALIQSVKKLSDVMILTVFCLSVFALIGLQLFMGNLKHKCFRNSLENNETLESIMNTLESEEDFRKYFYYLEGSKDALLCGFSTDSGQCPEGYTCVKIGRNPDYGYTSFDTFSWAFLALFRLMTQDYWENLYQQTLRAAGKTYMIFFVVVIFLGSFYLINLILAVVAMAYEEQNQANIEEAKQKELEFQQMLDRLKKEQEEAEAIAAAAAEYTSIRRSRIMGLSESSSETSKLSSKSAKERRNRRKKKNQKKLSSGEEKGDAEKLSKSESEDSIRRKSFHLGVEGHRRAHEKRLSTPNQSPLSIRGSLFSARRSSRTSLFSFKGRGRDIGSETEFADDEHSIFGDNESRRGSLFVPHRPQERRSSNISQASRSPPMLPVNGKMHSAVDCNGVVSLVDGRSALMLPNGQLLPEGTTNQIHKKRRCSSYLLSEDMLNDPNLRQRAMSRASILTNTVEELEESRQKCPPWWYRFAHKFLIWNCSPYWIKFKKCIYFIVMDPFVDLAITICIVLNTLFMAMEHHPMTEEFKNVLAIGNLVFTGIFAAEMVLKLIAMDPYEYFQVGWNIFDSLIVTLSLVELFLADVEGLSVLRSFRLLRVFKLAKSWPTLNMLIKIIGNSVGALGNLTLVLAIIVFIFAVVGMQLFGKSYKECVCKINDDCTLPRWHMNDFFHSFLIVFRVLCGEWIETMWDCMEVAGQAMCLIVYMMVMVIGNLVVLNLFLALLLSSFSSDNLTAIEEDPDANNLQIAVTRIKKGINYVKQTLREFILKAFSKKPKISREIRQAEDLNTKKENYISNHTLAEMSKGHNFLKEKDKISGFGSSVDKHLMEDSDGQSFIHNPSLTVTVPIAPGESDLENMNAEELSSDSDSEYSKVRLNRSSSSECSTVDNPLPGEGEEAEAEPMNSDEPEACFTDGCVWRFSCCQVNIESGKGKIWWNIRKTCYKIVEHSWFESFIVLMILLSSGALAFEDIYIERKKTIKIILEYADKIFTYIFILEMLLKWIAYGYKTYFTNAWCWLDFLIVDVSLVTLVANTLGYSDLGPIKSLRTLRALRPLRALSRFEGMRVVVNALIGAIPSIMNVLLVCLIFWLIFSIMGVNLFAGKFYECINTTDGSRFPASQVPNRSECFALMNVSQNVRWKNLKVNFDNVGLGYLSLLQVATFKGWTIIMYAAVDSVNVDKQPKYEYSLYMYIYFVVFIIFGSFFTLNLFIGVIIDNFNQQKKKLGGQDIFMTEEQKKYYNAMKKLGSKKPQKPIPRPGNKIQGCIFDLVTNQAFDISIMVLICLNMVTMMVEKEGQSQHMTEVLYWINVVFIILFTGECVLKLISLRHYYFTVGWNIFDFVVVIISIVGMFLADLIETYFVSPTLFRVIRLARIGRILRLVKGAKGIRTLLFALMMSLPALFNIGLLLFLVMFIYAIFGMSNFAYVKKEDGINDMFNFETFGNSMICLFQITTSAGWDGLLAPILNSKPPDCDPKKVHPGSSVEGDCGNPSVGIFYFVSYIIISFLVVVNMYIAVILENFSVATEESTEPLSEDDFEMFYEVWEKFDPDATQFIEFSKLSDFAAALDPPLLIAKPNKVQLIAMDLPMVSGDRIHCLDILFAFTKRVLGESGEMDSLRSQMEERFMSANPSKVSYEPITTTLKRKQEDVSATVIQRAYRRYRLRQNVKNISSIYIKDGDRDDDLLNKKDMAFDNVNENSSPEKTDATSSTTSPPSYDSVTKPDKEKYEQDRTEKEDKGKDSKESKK
Sequence of human NaV1.7 (Q07699 19-218 partner): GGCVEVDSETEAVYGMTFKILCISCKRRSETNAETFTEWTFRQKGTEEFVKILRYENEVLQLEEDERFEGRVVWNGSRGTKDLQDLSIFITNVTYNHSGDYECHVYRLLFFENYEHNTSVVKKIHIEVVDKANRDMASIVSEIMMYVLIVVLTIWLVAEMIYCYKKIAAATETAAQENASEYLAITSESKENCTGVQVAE

Row | Compound | IC50 (human NaV1.7) | IC50 (human NaV1.5)
1 | 4-(1-(adamantan-1-yl)ethoxy)-5-chloro-2-fluoro-N-(methylsulfonyl)benzamide [Example 19] | 0.0386 µM | –
2 | 4-(2-(adamantan-1-yl)ethoxy)-3-chloro-N-(methylsulfonyl)benzamide [Example 13] | 0.123 µM | –
3 | 4-(adamantan-1-ylmethoxy)-5-chloro-2-fluoro-N-(methylsulfonyl)benzamide [Example 8] | – | 1.07 µM
4 | 4-(adamantan-1-ylmethoxy)-5-chloro-N-(N,N-dimethylsulfamoyl)-2-fluorobenzamide [Example 28] | 2.25 µM | –
5 | 4-(bicyclo[2.2.1]heptan-2-yloxy)-5-chloro-2-fluoro-N-(methylsulfonyl)-benzamide [Example 145] | 0.0036 µM | –
6 | CC1(C)C2CCC1(C)C(Oc1cc(F)c(C(=O)NS(C)(=O)=O)cc1Cl)C2 (stereo not drawn) [Example 15, 5-chloro-2-fluoro-N-(methylsulfonyl)-4-((exo-1,7,7-trimethylbicyclo[2.2.1]heptan-2-yl)oxy)benzamide] | 0.171 µM | –
7 | CS(=O)(=O)NC(=O)c1cc(Cl)c(OC2[C@@H]3CC4C[C@H]2CC(Cl)(C4)C3)cc1F (stereo partly drawn) [Example 25, 5-chloro-4-(((1R,2r,3S,5s,7s)-5-chloroadamantan-2-yl)oxy)-2-fluoro-N-(methylsulfonyl)benzamide] | 0.027 µM | –

Now from value to compound, other results behind:

Row | IC50 (human NaV1.7) | Compound | IC50 (human NaV1.5)
8 | 0.0658 µM | 5-Chloro-2-fluoro-N-(methylsulfonyl)-4-((2,2,3,3-tetramethylcyclopropyl)-methoxy)benzamide [Example 34] | –
9 | 0.0077 µM | 5-chloro-2-fluoro-N-(methylsulfonyl)-4-((1-(trifluoromethyl)cyclopropyl)-methoxy)benzamide [Example 36] | –
10 | 0.0416 µM | 5-chloro-4-(3-cyclohexylpropoxy)-N-(N,N-dimethylsulfamoyl)-2-fluorobenzamide [Example 82] | –
11 | 0.0854 µM | CN(C)S(=O)(=O)NC(=O)c1cc(Cl)c(OC2CCC3(CCCCC3)CC2)cc1F [Example 79] | –
12 | 0.00131 µM | CN(C)S(=O)(=O)NC(=O)c1cc(Cl)c(OCC23CC4CC(CC(F)(C4)C2)C3)cc1F [Example 86, 5-chloro-N-(N N-dimethylsulfamoyl)-2-fluoro-4-((3-fluoroadamantan-1-yl)methoxy)benzamide] | –
